In ChEMBL document CHEMBL5523678, “Synthesis and clinical application of new drugs approved by FDA in 2023” (Eur J Med Chem, 2024) one finds IC50 data, which are given here for 2 compounds.

Broadly, the IC50 is the midpoint of a concentration-inhibition curve. Lower therefore signals higher potency.

Test [1] is described as follows: Inhibition of Drosophila melanogaster GABA receptor.
A short description of test [2]: Inhibition of Gamma secretase (unknown origin). Also noted: species or system Homo sapiens.

As for `Cc1cc(C2=NO[C@@](c3cc(Cl)c(Cl)c(Cl)c3)(C(F)(F)F)C2)sc1C(=O)NCC(=O)NCC(F)(F)F` [LOTILANER], the IC50 in test [1] was found to be 23.8 nM.

Turning to `CCC[C@H](N[C@H]1CCc2cc(F)cc(F)c2C1)C(=O)Nc1cn(C(C)(C)CNCC(C)(C)C)cn1` [NIROGACESTAT], the half-maximal inhibitory concentration (IC50) in test [2] is 6.2 nM.
